From patent US20090270469A1, “SUBSTITUTED OXAZOLIDINONES” (AUSPEX PHARMACEUTICALS, INC., priority 2008, published 2009)

Tests used:
[1] = 400 mg oral dose under fasted conditions; cited from earlier work
human liver microsomes = test: In vitro human liver microsomal (HLM) stability assay; format: in vitro ADME; conditions: human liver microsomes 1 mg/mL, 1 μM compound, 37° C., vs non-isotopically enriched drug
Protocol: Liver microsomal stability assays were conducted at 1 mg per mL liver microsome protein with an NADPH-generating system in 2% NaHCO3 (2.2 mM NADPH, 25.6 mM glucose 6-phosphate, 6 units per mL glucose 6-phosphate dehydrogenase and 3.3 mM MgCl2). Test compounds were prepared as solutions in 20% acetonitrile-water. These solutions were added to the assay mixture (final assay concentration 1 μM) and incubated at 37° C. Final concentration of acetonitrile in the assay should be <1%. Aliquots (50 μL) were collected at the these timpoints: […], and 1 hours, and diluted with ice cold acetonitrile (200 μL) to stop the reactions. Samples were centrifuged at 12,000 RPM for 10 minutes to precipitate proteins. Supernatants were transferred to micro centrifuge tubes and stored for LC/MS/MS analysis of the degradation half-life of the test compounds.
Results of in vitro Human Liver Microsomal (HLM) Stability Assay

Row | % increase of HLM degradation half-life, bin 0%-50% (human liver microsomes) | Compound | also measured
1 | + (0%-50%) | [2H]C([2H])(Oc1cc(C)cc(C)c1)C1CNC(=O)O1 (centres unmarked) [Example 3, 5-[(3,5-dimethyl-phenoxy)methyl-d2]oxazolidin-2-one] | 
2 | + (0%-50%) | [2H]C1([2H])NC(=O)OC1([2H])C([2H])([2H])Oc1cc(C)cc(C)c1 (centres unmarked) [Example 5, 5-[(3,5-Dimethylphenoxy)methyl-d2]oxazolidin-4,4,5-d3-2-one] | 
3 | + (0%-50%) | [2H]C([2H])([2H])c1cc(OC([2H])([2H])C2([2H])OC(=O)NC2([2H])[2H])cc(C([2H])([2H])[2H])c1 (centres unmarked) [Example 6, 5-[(3,5-Dimethyl-d6-phenoxy)methyl-d2]oxazolidin-4,4,5-d3-2-one] | 

More lines, now with the values behind:

Row | Compound | % increase of HLM degradation half-life, bin 0%-50% (human liver microsomes) | also measured
4 | Cc1cc(C)cc(OCC2CNC(=O)O2)c1 (centres unmarked) [Example 1, 5-[(3,5-dimethylphenoxy)methyl]oxazolidin-2-one] |  | terminal half-life [1]: 9.0 ± 4.8 h; time of peak plasma concentrations [1]: approximately 3 hours; % increase of HLM degradation half-life, bin −25%-0% (human liver microsomes): + (−25%-0%)
5 | [2H]C([2H])([2H])c1cc(OCC2CNC(=O)O2)cc(C([2H])([2H])[2H])c1 (centres unmarked) [Example 2, 5-[(3,5-dimethyl-d6-phenoxy)methyl]oxazolidin-2-one] | + (0%-50%) | 
6 | [2H]C([2H])([2H])c1cc(OC([2H])([2H])C2CNC(=O)O2)cc(C([2H])([2H])[2H])c1 (centres unmarked) [Example 4, 5-[(3,5-Dimethyl-d6-phenoxy)methyl-d2]oxazolidin-2-one] | + (0%-50%) | 
